Measurements from patent publication US12427179B2, “Compositions and methods for diagnosis and treatment of neurodegenerative diseases” (EPITRACKER, INC., priority 2019, dated 2025).

Experiments:
[1] = tested on: 4H: Venular endothelial cells (IL-4, histamine); assay: BioMAP 4H system; assay type: cell-based, human; conditions: at the compound's active concentration
Text: (§1) The Diversity PLUS panel allows test agent characterization in an unbiased way across a broad set of systems modeling various human disease states. These systems are designed to model complex human tissue and disease biology of the vasculature, skin, lung, and inflammatory tissues. Quantitative measurements of 148 biomarker activities across this broad panel, along with comparative analysis of biological activities from known bioactive agents, were used to predict and compare the efficacy and function of each selected compound at selected concentrations (6.7 and/or 20 μM).
BioMAP systems are constructed with one or more primary cell types from healthy human donors, with stimuli (such as cytokines or growth factors) added to capture relevant signaling networks that naturally occur in human tissue or pathological conditions. Vascular biology is modeled in both a Th1 (3C system) and a Th2 (4H system) inflammatory environment, as well as in a Th1 inflammatory state specific to arterial smooth muscle cells (CASM3C system). […]
(§2) Each test agent generates a signature BioMAP profile that is created from the changes in protein biomarker readouts within individual system environments. Biomarker readouts (7-17 per system) are selected for therapeutic and biological relevance, are predictive for disease outcomes or specific drug effects and are validated using agents with known mechanism of action (MoA). Each readout is measured quantitatively by immune-based methods that detect protein (e.g., ELISA) or functional assays that measure proliferation and viability. BioMAP readouts are diverse and include cell surface receptors, cytokines, chemokines, matrix molecules and enzymes. In total, the Diversity PLUS panel contains 148 biomarker readouts that capture biological changes that occur within the physiological context of the particular BioMAP system. […]
(§3) Activated BioMAP systems were incubated with each compound for 24 to 72 hours. Protein-based biomarkers from activated cell systems were measured and compared with non-treated control systems.

[2] = tested on: BT: Peripheral blood mononuclear cells, B cells (α-IgM, TCR ligands); assay: BioMAP BT system; assay type: cell-based, human
Experimental: (§4) Anti-inflammatory phenotypic profiling was conducted across 12 human primary cell-based systems as part of DiscoverX's BioMAP Diversity Plus program. These systems are designed to model complex human tissue and disease biology of the vasculature, skin, lung, and inflammatory tissues. Quantitative measurements of biomarker activities across this broad panel were used to assess each biochemical's anti-inflammatory activity at four concentrations ([…] and 2.2, 6.7 and 20 μM). […] Protein-based biomarkers from activated cell systems were measured and compared with controls. Biomarker activities were annotated when 2 or more consecutive concentrations change in the same directions relative to vehicle controls, were outside of the significance envelope and had at least one concentration with an effect size>20% (log 10 ratio)>0.1.
(§5) In the first system, human primary peripheral blood mononuclear cells and venular endothelial cells were stimulated with lipopolysaccharide (LPS) and incubated with the test agent, drug control, or vehicle control for 24 hours. In the second system, peripheral blood mononuclear cells and B cells were stimulated with α-IgM and T cell receptor ligands and incubated with the test agent, drug control, or vehicle control for 24 hours. In both systems, a negative, non-stimulated system was also included.
as §1
(§6) BioMAP systems are constructed with one or more primary cell types from healthy human donors, with stimuli (such as cytokines or growth factors) added to capture relevant signaling networks that naturally occur in human tissue or pathological conditions. Vascular biology is modeled in both a Th1 (3C system) and a Th2 (4H system) inflammatory environment, as well as in a Th1 inflammatory state specific to arterial smooth muscle cells (CASM3C system). Additional systems recapitulate aspects of the systemic immune response including monocyte-driven Th1 inflammation (LPS system) or T cell stimulation (SAg system), chronic Th1 inflammation driven by macrophage activation (lMphg system) and the T cell-dependent activation of B cells that occurs in germinal centers (BT system). The BE3C system (Th1) and the BF4T system (Th2) represent airway inflammation of the lung, while the MyoF system models myofibroblast-lung tissue remodeling. Lastly, skin biology is addressed in the KF3CT system modeling Th1 cutaneous inflammation and the HDF3CGF system modeling wound healing.
as §2

[3] = tested on: human primary cell-based systems; assay: BioMAP Diversity PLUS panel, phenotypic profiling; conditions: tested at 6.7 and/or 20 μM; 24 to 72 hours
Experimental: as §4, with “controls.” for “controls. Biomarker activities were annotated when 2 or more consecutive concentrations change in the same directions relative to vehicle controls, were outside of the significance envelope and had at least one concentration with an effect size>20% (log 10 ratio)>0.1.”
as §1, §6
(§7) Each test agent generates a signature BioMAP profile that is created from the changes in protein biomarker readouts within individual system environments. Biomarker readouts (7-17 per system) are selected for therapeutic and biological relevance, are predictive for disease outcomes or specific drug effects and are validated using agents with known mechanism of action (MoA). Each readout is measured quantitatively by immune-based methods that detect protein (e.g., ELISA) or functional assays that measure proliferation and viability. BioMAP readouts are diverse and include cell surface receptors, cytokines, chemokines, matrix molecules and enzymes. In total, the Diversity PLUS panel contains 148 biomarker readouts that capture biological changes that occur within the physiological context of the particular BioMAP system.
as §3

[4] = tested on: /Mphg: Macrophages, venular endothelial cells (TLR2 ligand); assay: BioMAP /Mphg system; assay type: cell-based, human; conditions: at the compound's active concentration
Text: as §1, §6, §2, §3

[5] = tested on: LPS: Venular endothelial cells, peripheral blood mononuclear cells (TLR4 ligand); assay: BioMAP LPS system; assay type: cell-based, human
Experimental: as §4, §5, §1, §6, §2

[6] = tested on: BE3C: Bronchial epithelial cells (IL-1β, IFNγ, TNFα); assay: BioMAP BE3C system; assay type: cell-based, human; conditions: at the compound's active concentration
Text: (§8) The Diversity PLUS panel allows test agent characterization in an unbiased way across a broad set of systems modeling various human disease states. These systems are designed to model complex human tissue and disease biology of the vasculature, skin, lung, and inflammatory tissues.
as §6
as §7, with “enzymes.” for “enzymes. In total, the Diversity PLUS panel contains 148 biomarker readouts that capture biological changes that occur within the physiological context of the particular BioMAP system.”
as §3

[7] = tested on: 3C system (Th1 vascular biology); assay: BioMAP 3C system; assay type: cell-based, human; conditions: at the compound's active concentration
Text: as §2, with “The Diversity PLUS panel allows test agent characterization in an unbiased way across a broad set of systems modeling various human disease states. These systems are designed to model complex human tissue and disease biology of the vasculature, skin, lung, and inflammatory tissues. […] BioMAP systems are constructed with one or more primary cell types from healthy human donors, with stimuli (such as cytokines or growth factors) added to capture relevant signaling networks that naturally occur in human tissue or pathological conditions. […] Each test” for “Each test”

[8] = tested on: CASM3C: Coronary artery smooth muscle cells (IL-1β, TNFα, IFNγ); assay: BioMAP CASM3C system; assay type: cell-based, human; conditions: at the compound's active concentration
Text: as §8, §6
as §7, with “enzymes.” for “enzymes. In total, the Diversity PLUS panel contains 148 biomarker readouts that capture biological changes that occur within the physiological context of the particular BioMAP system.”
as §3

[9] = tested on: HDF3CGF: Dermal fibroblasts; assay: BioMAP HDF3CGF system; assay type: cell-based, human; conditions: at the compound's active concentration
Text: as §1, §6
as §7, with “system. Specific BioMAP activities have been correlated to in vivo biology, and multiparameter BioMAP profiles have been used to distinguish compounds based on MoA and target selectivity across diverse physiological systems.” for “system.”
as §3

[10] = tested on: SAg: Venular endothelial cells, peripheral blood mononuclear cells (TCR ligands); assay: BioMAP SAg system; assay type: cell-based, human; conditions: SAg system; at the compound's active concentration
Experimental: as §4
In this system, human primary peripheral blood mononuclear cells and human umbilical vein endothelial cells were stimulated with T-cell receptor ligands and incubated with the test agent, drug control, or vehicle control for 24 hours. A negative, non-stimulated system was also included. […] This antiproliferative activity was lost at higher concentrations (20 μM). In this system, T cell proliferation is considered a critical event driving an inflammatory response.
as §1, with “μM). […]” for “μM).”
as §2

[11] = BT system, at the compound's active concentration
[12] = at the compound's active concentration

Compound: CC(=O)N[C@H](C(=O)O)[C@@H](C)O [N-acetylthreonine]
- VEGFR2, log10 reduction vs nontreated controls [1]: −0.16 log10
- Secreted IgG, log10 reduction vs nontreated controls [2, 11]: −0.41 log10
- Active concentrations [3]: 20 µM

Compound: N[C@@H](CCC(=O)N[C@@H](Cc1c[nH]cn1)C(=O)O)C(=O)O [gamma-glutamylhistidine]
- IL-8, log10 reduction vs nontreated controls [4]: −0.15 log10
- TNF-alpha (sTNF-alpha), log10 reduction vs nontreated controls [2, 11]: −0.18 log10
- CD40, log10 reduction vs nontreated controls [5, 12]: −0.11 log10
- E-selectin, log10 reduction vs nontreated controls [5, 12]: −0.11 log10
- MMP-1, log10 reduction vs nontreated controls [6]: −0.10 log10
- Tissue factor, log10 reduction vs nontreated controls [7]: −0.12 log10
- Active concentrations [3]: 20 µM
- Thrombomodulin, log10 reduction vs nontreated controls ([8]; CASM3C system): −0.12 log10

Compound: COc1cc(C(O)C(=O)O)ccc1O (centres unmarked) [vanillylmandelate (VMA), vanillylmandelate]
- IL-8, log10 reduction vs nontreated controls [4]: −0.18 log10

Compound: C[C@H](CCC(=O)O)[C@H]1CC[C@H]2[C@@H]3[C@H](O)C[C@@H]4C[C@H](O)CC[C@]4(C)[C@H]3C[C@H](O)[C@]12C [cholate]
- Tissue factor, log10 reduction vs nontreated controls [5, 12]: −0.13 log10
- MMP-1, log10 reduction vs nontreated controls [6]: −0.10 log10
- Active concentrations [3]: 20 µM
- Thrombomodulin, log10 reduction vs nontreated controls ([8]; CASM3C system): −0.12 log10

Compound: N=C(N)NCCCC(=O)O [4-guanidinobutanoate]
- MCP-1, log10 reduction vs nontreated controls [1]: −0.12 log10
- Secreted IgG, log10 reduction vs nontreated controls [2, 11]: −0.49 log10
- TNF-alpha (sTNF-alpha), log10 reduction vs nontreated controls [2, 11]: −0.10 log10
- sIL-17A, log10 reduction vs nontreated controls [2, 11]: −0.17 log10
- CXCL10, log10 reduction vs nontreated controls [9]: −0.11 log10
- CXCL11, log10 reduction vs nontreated controls [9]: −0.19 log10
- Collagen III, log10 reduction vs nontreated controls [9]: −0.30 log10
- Fibroblast proliferation, log10 reduction vs nontreated controls [9]: −1.09 log10
- TIMP-1, log10 reduction vs nontreated controls [9]: −0.14 log10
- VCAM-1, log10 reduction vs nontreated controls [9]: −0.19 log10
- Active concentrations [3]: 6.7 to 20 µM
- CD38, log10 reduction vs nontreated controls [10]: −0.10 log10
- T cell proliferation, log10 reduction vs nontreated controls [10]: −0.13 log10

Compound: O=C(O)c1cc(O)c2cccc(O)c2n1 [xanthurenate]
- Secreted interleukin 6 (IL-6), log10 reduction vs controls ([2]; BT system (second system)): −0.13 log10
- TNF-alpha (sTNF-alpha), log10 reduction vs nontreated controls [2, 11]: −0.19 log10
- Secreted prostaglandin E2 (PGE2), log10 reduction vs nontreated controls ([5]; 20 μM): −0.09 log10

Compound: O=c1[nH]c(=O)c2ncn([C@@H]3O[C@H](CO)[C@@H](O)[C@H]3O)c2[nH]1 [xanthosine]
- IL-8, log10 reduction vs nontreated controls [4]: −0.13 log10
- CD40, log10 reduction vs nontreated controls [5, 12]: −0.12 log10
- Tissue factor, log10 reduction vs nontreated controls [5, 12]: −0.13 log10
- Active concentrations [3]: 6.7 to 20 µM
- Tissue factor, log10 reduction vs nontreated controls ([8]; CASM3C system (system cell not printed on the line)): −0.13 log10
- Thrombomodulin, log10 reduction vs nontreated controls ([8]; CASM3C system): −0.11 log10

Compound: O[C@H]1[C@H](O)[C@@H](O)[C@H](O)[C@@H](O)[C@H]1O [myo-inositol]
- MMP-1, log10 reduction vs nontreated controls [6]: −0.12 log10
- Active concentrations [3]: 6.7 µM
- M-CSF, log10 reduction vs nontreated controls ([8]; CASM3C system): −0.10 log10
